Experimental data: ChEMBL document CHEMBL4196087 (Eur J Med Chem, 2018)
pIC50: −log10 of the molar value.

How the values were obtained:
UO-31 [1] = experiment: Antiproliferative activity against human UO31 cells after 48 hrs by MTT assay; format: functional, cell-based; details: UO-31, 48 h
UO-31 [2] = experiment: Potency index, ratio of doxorubicin IC50 to compound IC50 for antiproliferative activity against human UO31 cells; format: functional
UO-31 [3] = experiment: Antiproliferative activity against human UO31 cells after 48 hrs by SRB assay; format: functional; details: UO-31, 48 h
UO-31 [4] = experiment: Cell cycle arrest in human UO31 cells assessed as accumulation at G1 phase at 0.75 uM after 24 hrs by propidium iodide staining based flow cytometry (reference value: 69.55%); format: functional
UO-31 [5] = experiment: Cell cycle arrest in human UO31 cells assessed as accumulation at G2 phase at 0.75 uM after 24 hrs by propidium iodide staining based flow cytometry (reference value: 5.49%); format: functional
UO-31 [6] = experiment: Cell cycle arrest in human UO31 cells assessed as accumulation at S phase at 0.75 uM after 24 hrs by propidium iodide staining based flow cytometry (reference value: 24.47%); format: functional
UO-31 [7] = experiment: Cell cycle arrest in human UO31 cells assessed as apoptotic cells at 0.75 uM after 24 hrs by propidium iodide staining based flow cytometry (reference value: 0.49%); format: functional
UO-31 [8] = experiment: Cell cycle arrest in human UO31 cells assessed as accumulation at pre-G1 phase at 0.75 uM after 24 hrs by propidium iodide staining based flow cytometry relative to control; format: functional
UO-31 [9] = experiment: Cell cycle arrest in human UO31 cells assessed as accumulation at G2/M phase at 0.75 uM after 24 hrs by propidium iodide staining based flow cytometry relative to control; format: functional
UO-31 [10] = experiment: Induction of apoptosis in human UO31 cells assessed as live cells at 0.75 uM after 24 hrs by Annexin V-FITC/propidium iodide staining based low cytometry (reference value: 97.84%); format: functional
UO-31 [11] = experiment: Induction of apoptosis in human UO31 cells assessed as early apoptotic cells at 0.75 uM after 24 hrs by Annexin V-FITC/propidium iodide staining based flow cytometry (reference value: 0.19%); format: functional
UO-31 [12] = experiment: Induction of apoptosis in human UO31 cells assessed as late apoptotic cells at 0.75 uM after 24 hrs by Annexin V-FITC/propidium iodide staining based flow cytometry (reference value: 0.22%); format: functional
UO-31 [13] = experiment: Induction of apoptosis in human UO31 cells assessed as necrotic cells at 0.75 uM after 24 hrs by Annexin V-FITC/propidium iodide staining based flow cytometry (reference value: 0.08%); format: functional
UO-31 [14] = experiment: Induction of apoptosis in human UO31 cells assessed as caspase-3 activation by measuring active caspase-3 level at 0.75 uM by […] (reference value: 66 pg/ml); format: functional
DNA topoisomerase 2-beta [15] = molecular target: T1, DNA topoisomerase 2-beta (Homo sapiens, UniProt Q02880); experiment: Inhibition of human topoisomerase-2B after 2 hrs by ELISA
DNA topoisomerase 2-beta [16] = molecular target: T1, DNA topoisomerase 2-beta; experiment: Potency index, ratio of doxorubicin IC50 to compound IC50 for inhibition of human topoisomerase-2B
DNA topoisomerase 2-beta [17] = molecular target: T1, DNA topoisomerase 2-beta; experiment: Potency index, ratio of amsacrine IC50 to compound IC50 for inhibition of human topoisomerase-2B
DNA topoisomerase 2-beta [18] = molecular target: T1, DNA topoisomerase 2-beta; experiment: Potency index, ratio of etoposide IC50 to compound IC50 for inhibition of human topoisomerase-2B
Bacillus subtilis = experiment: Antibacterial activity against Bacillus subtilis at 37 degC measured after 24 hrs by agar disc diffusion method; format: functional
Staphylococcus aureus = experiment: Antibacterial activity against Staphylococcus aureus at 37 degC measured after 24 hrs by agar disc diffusion method; format: functional
Escherichia coli = experiment: Antibacterial activity against Escherichia coli at 37 degC measured after 24 hrs by agar disc diffusion method; format: functional
Pseudomonas aeruginosa = experiment: Antibacterial activity against Pseudomonas aeruginosa at 37 degC measured after 24 hrs by agar disc diffusion method; format: functional
CCRF-CEM = experiment: Growth inhibition of human CCRF-CEM cells at 10^-5 M incubated for 48 hrs by sulforhodamine B assay relative to control; format: functional; details: read-out: GI
HL-60(TB) = experiment: Growth inhibition of human HL-60(TB) cells at 10^-5 M incubated for 48 hrs by sulforhodamine B assay relative to control; format: functional; details: HL-60, 48 h, read-out: GI
K562 = experiment: Growth inhibition of human K562 cells at 10^-5 M incubated for 48 hrs by sulforhodamine B assay relative to control; format: functional; details: K562, 48 h, read-out: GI
MOLT-4 = experiment: Growth inhibition of human MOLT4 cells at 10^-5 M incubated for 48 hrs by sulforhodamine B assay relative to control; format: functional; details: MOLT-4, 48 h, read-out: GI
RPMI-8226 = experiment: Growth inhibition of human RPMI8226 cells at 10^-5 M incubated for 48 hrs by sulforhodamine B assay relative to control; format: functional; details: RPMI-8226, 48 h, read-out: GI
HOP-62 = experiment: Growth inhibition of human HOP62 cells at 10^-5 M incubated for 48 hrs by sulforhodamine B assay relative to control; format: functional; details: HOP-62, 48 h, read-out: GI
HOP-92 = experiment: Growth inhibition of human HOP92 cells at 10^-5 M incubated for 48 hrs by sulforhodamine B assay relative to control; format: functional; details: HOP-92, 48 h, read-out: GI
NCI-H226 = experiment: Growth inhibition of human NCI-H226 cells at 10^-5 M incubated for 48 hrs by sulforhodamine B assay relative to control; format: functional; details: NCI-H226, 48 h, read-out: GI
SF-539 = experiment: Growth inhibition of human SF539 cells at 10^-5 M incubated for 48 hrs by sulforhodamine B assay relative to control; format: functional; details: SF-539, 48 h, read-out: GI
SNB-75 = experiment: Growth inhibition of human SNB75 cells at 10^-5 M incubated for 48 hrs by sulforhodamine B assay relative to control; format: functional; details: SNB-75, 48 h, read-out: GI
LOX IMVI = experiment: Growth inhibition of human LOXIMVI cells at 10^-5 M incubated for 48 hrs by sulforhodamine B assay relative to control; format: functional; details: read-out: GI
SK-MEL-5 = experiment: Growth inhibition of human SK-MEL-5 cells at 10^-5 M incubated for 48 hrs by sulforhodamine B assay relative to control; format: functional; details: SK-MEL-5, 48 h, read-out: GI
IGROV-1 = experiment: Growth inhibition of human IGROV1 cells at 10^-5 M incubated for 48 hrs by sulforhodamine B assay relative to control; format: functional; details: IGROV-1, 48 h, read-out: GI
A498 = experiment: Growth inhibition of human A498 cells at 10^-5 M incubated for 48 hrs by sulforhodamine B assay relative to control; format: functional; details: A498, 48 h, read-out: GI
UO-31 [19] = experiment: Growth inhibition of human UO31 cells at 10^-5 M incubated for 48 hrs by sulforhodamine B assay relative to control; format: functional; details: UO-31, 48 h, read-out: GI
PC-3 = experiment: Growth inhibition of human PC3 cells at 10^-5 M incubated for 48 hrs by sulforhodamine B assay relative to control; format: functional; details: PC-3, 48 h, read-out: GI
MCF7 = experiment: Growth inhibition of human MCF7 cells at 10^-5 M incubated for 48 hrs by sulforhodamine B assay relative to control; format: functional; details: MCF7, 48 h, read-out: GI
MDA-MB-231 = experiment: Growth inhibition of human MDA-MB-231 cells at 10^-5 M incubated for 48 hrs by sulforhodamine B assay relative to control; format: functional; details: MDA-MB-231, 48 h, read-out: GI
T47D = experiment: Growth inhibition of human T47D cells at 10^-5 M incubated for 48 hrs by sulforhodamine B assay relative to control; format: functional; details: read-out: GI
MDA-MB-468 [20] = experiment: Growth inhibition of human MDA-MB-468 cells at 10^-5 M incubated for 48 hrs by sulforhodamine B assay relative to control; format: functional; details: MDA-MB-468, 48 h, read-out: GI
MDA-MB-468 [21] = experiment: Antiproliferative activity against human MDA-MB-468 cells after 48 hrs by MTT assay; format: functional, cell-based; details: MDA-MB-468, 48 h
MDA-MB-468 [22] = experiment: Potency index, ratio of doxorubicin IC50 to compound IC50 for antiproliferative activity against human MDA-MB-468 cells; format: functional
MDA-MB-468 [23] = experiment: Antiproliferative activity against human MDA-MB-468 cells after 48 hrs by SRB assay; format: functional; details: MDA-MB-468, 48 h, read-out: LC50 (the source's name)

T1 sequence (Q02880 whole entry): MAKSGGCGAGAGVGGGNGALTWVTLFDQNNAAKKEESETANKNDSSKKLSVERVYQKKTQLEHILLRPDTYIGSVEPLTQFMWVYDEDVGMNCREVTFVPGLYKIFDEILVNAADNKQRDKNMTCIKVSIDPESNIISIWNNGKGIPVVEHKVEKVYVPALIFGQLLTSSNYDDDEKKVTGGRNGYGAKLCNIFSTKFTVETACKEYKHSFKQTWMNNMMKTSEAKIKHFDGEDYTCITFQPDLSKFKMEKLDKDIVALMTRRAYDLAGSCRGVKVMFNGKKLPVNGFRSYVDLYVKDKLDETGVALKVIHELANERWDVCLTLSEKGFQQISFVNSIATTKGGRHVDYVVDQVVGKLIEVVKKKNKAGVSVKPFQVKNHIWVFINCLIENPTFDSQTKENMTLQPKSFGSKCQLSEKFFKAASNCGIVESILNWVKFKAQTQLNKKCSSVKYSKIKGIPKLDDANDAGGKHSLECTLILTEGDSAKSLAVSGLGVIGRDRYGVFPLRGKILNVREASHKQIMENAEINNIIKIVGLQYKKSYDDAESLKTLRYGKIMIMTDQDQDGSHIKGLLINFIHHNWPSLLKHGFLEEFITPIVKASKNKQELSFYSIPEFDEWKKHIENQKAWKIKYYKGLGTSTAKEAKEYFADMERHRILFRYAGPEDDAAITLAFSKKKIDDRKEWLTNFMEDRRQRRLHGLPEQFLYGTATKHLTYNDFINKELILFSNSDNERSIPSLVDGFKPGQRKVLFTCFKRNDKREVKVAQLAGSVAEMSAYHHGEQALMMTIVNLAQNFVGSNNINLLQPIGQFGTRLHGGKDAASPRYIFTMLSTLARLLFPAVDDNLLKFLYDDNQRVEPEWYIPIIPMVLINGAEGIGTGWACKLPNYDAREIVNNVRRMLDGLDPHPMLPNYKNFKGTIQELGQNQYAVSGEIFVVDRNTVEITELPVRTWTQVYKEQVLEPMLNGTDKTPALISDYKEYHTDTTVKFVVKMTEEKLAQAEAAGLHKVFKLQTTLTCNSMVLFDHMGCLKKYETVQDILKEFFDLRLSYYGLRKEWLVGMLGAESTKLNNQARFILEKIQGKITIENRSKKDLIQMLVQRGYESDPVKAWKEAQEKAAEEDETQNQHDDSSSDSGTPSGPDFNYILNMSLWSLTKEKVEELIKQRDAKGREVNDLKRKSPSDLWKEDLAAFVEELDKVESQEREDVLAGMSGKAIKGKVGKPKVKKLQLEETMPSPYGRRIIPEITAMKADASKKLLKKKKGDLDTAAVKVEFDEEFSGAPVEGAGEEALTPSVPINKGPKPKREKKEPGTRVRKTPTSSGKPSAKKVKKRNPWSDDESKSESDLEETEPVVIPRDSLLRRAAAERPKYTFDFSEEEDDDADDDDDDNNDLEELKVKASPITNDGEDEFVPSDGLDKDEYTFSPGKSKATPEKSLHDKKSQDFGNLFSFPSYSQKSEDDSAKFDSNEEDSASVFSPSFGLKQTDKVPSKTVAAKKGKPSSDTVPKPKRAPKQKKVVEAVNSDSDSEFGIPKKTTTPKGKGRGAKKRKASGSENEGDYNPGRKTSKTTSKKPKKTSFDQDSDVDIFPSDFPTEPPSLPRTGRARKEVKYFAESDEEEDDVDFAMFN

Q: Which results are given for `O=C(CN1CCN(c2cc3c(cc2F)c(=O)c(C(=O)O)cn3C2CC2)CC1)N/N=C/c1ccccc1O`?
A: pIC50 (UO-31 [1]): 6.12; Ratio IC50 (UO-31 [2]): 1.5 - 9; LC50 (UO-31 [3]): 15.2 µM; Activity (UO-31 [4]): 59.87%; Activity (UO-31 [5]): 11.28%; Activity (UO-31 [6]): 22.02%; Activity (UO-31 [7]): 6.83%; fold change (FC) (UO-31 [8]): 13.9; fold change (FC) (UO-31 [9]): 2.05; Activity (UO-31 [10]): 91.8%; Activity (UO-31 [11]): 2.64%; Activity (UO-31 [12]): 3.32%; Activity (UO-31 [13]): 0.87%; Activity (UO-31 [14]): 346.4 pg/mL; pIC50 (DNA topoisomerase 2-beta [15]): 6.24; Ratio IC50 (DNA topoisomerase 2-beta [16]): 6; Ratio IC50 (DNA topoisomerase 2-beta [17]): 5; Ratio IC50 (DNA topoisomerase 2-beta [18]): 1.5; diameter of the inhibition zone (DIZ) (Bacillus subtilis): 18 mm; diameter of the inhibition zone (DIZ) (Staphylococcus aureus): 15 mm; diameter of the inhibition zone (DIZ) (Escherichia coli): 16 mm; diameter of the inhibition zone (DIZ) (Pseudomonas aeruginosa): 17 mm

Q: `O=C(CN1CCN(c2cc3c(cc2F)c(=O)c(C(=O)O)cn3C2CC2)CC1)N/N=C/c1ccc(O)cc1O` was tested. Which pIC50 (UO-31 [1]) did it give?
A: 5.50

Q: What about the “Ratio IC50” value (UO-31 [2]) of the same compound?
A: 1.5 - 9

Q: What about the LC50 (UO-31 [3]) of the same compound?
A: 13 µM

Q: What about the “diameter of the inhibition zone (DIZ)” value (Bacillus subtilis) of the same compound?
A: 24 mm

Q: And the “diameter of the inhibition zone (DIZ)” value (Staphylococcus aureus)?
A: 21 mm

Q: What about the “diameter of the inhibition zone (DIZ)” value (Escherichia coli) of the same compound?
A: 20 mm

Q: And the “diameter of the inhibition zone (DIZ)” value (Pseudomonas aeruginosa)?
A: 23 mm

Q: Which results are given for `O=C(CN1CCN(c2cc3c(cc2F)c(=O)c(C(=O)O)cn3C2CC2)CC1)N/N=C/c1ccccc1C(F)(F)F`?
A: inhibition of growth at 10 µM (CCRF-CEM): < 20%; inhibition of growth at 10 µM (HL-60(TB)): < 20%; inhibition of growth at 10 µM (K562): 21.2%; inhibition of growth at 10 µM (MOLT-4): 27.3%; inhibition of growth at 10 µM (RPMI-8226): 25%; inhibition of growth at 10 µM (HOP-62): < 20%; inhibition of growth at 10 µM (HOP-92): 35.9%; inhibition of growth at 10 µM (NCI-H226): < 20%; inhibition of growth at 10 µM (SF-539): 22.5%; inhibition of growth at 10 µM (SNB-75): 29.9%; inhibition of growth at 10 µM (LOX IMVI): 32.3%; inhibition of growth at 10 µM (SK-MEL-5): 22.1%; inhibition of growth at 10 µM (IGROV-1): 33.4%; inhibition of growth at 10 µM (A498): 20.7%; inhibition of growth at 10 µM (UO-31 [19]): 37.4%; inhibition of growth at 10 µM (PC-3): 24.9%; inhibition of growth at 10 µM (MCF7): < 20%; inhibition of growth at 10 µM (MDA-MB-231): 23.6%; inhibition of growth at 10 µM (T47D): 25.1%; inhibition of growth at 10 µM (MDA-MB-468 [20]): 34.7%; pIC50 (UO-31 [1]): 5.31; pIC50 (MDA-MB-468 [21]): 5.67; Ratio IC50 (UO-31 [2]): 1.5 - 9; Ratio IC50 (MDA-MB-468 [22]): 1.3; LC50 (UO-31 [3]): 15.9 µM; CC50 (MDA-MB-468 [23]): 15.6 µM; diameter of the inhibition zone (DIZ) (Bacillus subtilis): 28 mm; diameter of the inhibition zone (DIZ) (Staphylococcus aureus): 25 mm; diameter of the inhibition zone (DIZ) (Escherichia coli): 26 mm; diameter of the inhibition zone (DIZ) (Pseudomonas aeruginosa): 25 mm
